US20060205808A1, “Anti-inflammatory and cure for ageing, Alzheimer's disease on phloroglucinol derivatives” (Kaohsiung Medical University, priority 2005, published 2006)

Experiments:
rat neutrophils [1] = experiment: release of β-glucuronidase from rat neutrophils stimulated with fMLP/CB; format: cell-based; conditions: fMLP (1 μM)/CB (5 μg mL^−1); for IC50: means ± s.e.m. (n = 3-5)
rat neutrophils [2] = experiment: release of lysozyme from rat neutrophils stimulated with fMLP/CB; format: cell-based; conditions: fMLP (1 μM)/CB (5 μg mL^−1); for IC50: means ± s.e.m. (n = 3-5)
rat neutrophils [3] = experiment: fMLP/CB-induced superoxide anion generation in rat neutrophils; format: cell-based
Protocol: (§1) FMLP (0.3 μM)/CB (5 μg mL^−1) or phorbol myristate acetate (PMA) (3 nM) stimulated superoxide anion generation in rat neutrophils. […] Trifluoperazine was used in this experiment as a positive control.

rat neutrophils [4] = experiment: PMA-induced superoxide anion generation in rat neutrophils; format: cell-based; conditions: PMA (3 nM)
Protocol: as §1

[5] = test system: RAW 264.7 macrophage-like cells; experiment: NO production (nitrite accumulation, Griess reaction) in RAW 264.7 cells in response to LPS; format: cell-based; conditions: LPS (1 μg mL^−1), 24 h; for IC50: read-out: IC50, accumulation of NO2^− in culture media, RAW 264.7 cells
Protocol: (§2) Treatment of RAW 264.7 macrophage-like cells with LPS (1 μg mL^−1) or N9 microglial cells with LPS (10 ng mL^−1)/IFN-γ (10 U mL^−1) for 24 h induced NO production as assessed by measuring the accumulation of nitrite, a stable metabolite of NO, in the media, based on the Griess reaction. […] 1400 W was used in this experiment as a positive control.

N9 microglial cells = experiment: NO production (nitrite accumulation, Griess reaction) in N9 cells in response to LPS/IFN-γ; format: cell-based; conditions: LPS (10 ng mL^−1)/IFN-γ (10 U mL^−1); for IC50: read-out: IC50, accumulation of NO2^− in culture media, N9 cells
Protocol: as §2

[6] = test system: mast cells and neutrophils; conditions: background statement; cited from earlier work

Compound	IC50 (rat neutrophils [1]) [µM]	IC50 (rat neutrophils [2]) [µM]	IC50 (rat neutrophils [3]; fMLP (0.3 μM)/CB (5 μg mL^−1)) [µM]	IC50 (rat neutrophils [4]) [µM]	% of inhibition at the highest concentration, superoxide anion, PMA (rat neutrophils [4]) [%]	% of inhibition at the highest concentration, NO2^− accumulation, RAW 264.7 cells [5] [%]	IC50 [5] [µM]	IC50 (N9 microglial cells; 24 h) [µM]	inhibition of chemical mediators release from mast cells and neutrophils (in words) [6]	further results
CC(C)=CCC1CC2(CC=C(C)C)C(=O)C(C(=O)C(C)C)(C(=O)C(C=CC(C)(C)O)=C2O)C1(C)C (centres unmarked) [Compound 1, Garcinielliptone F]	26.9 ± 2.6	20 ± 1.3	17 ± 0.9	> 30	46.8 ± 4.5	22.9 ± 2.9	> 10	> 3		inhibitory effect on release of β-glucuronidase (in words) (rat neutrophils [1]): potent inhibitory effects; inhibitory effect on release of lysozyme (in words) (rat neutrophils [2]): potent inhibitory effects; inhibitory effect on fMLP/CB-induced superoxide anion generation (in words) (rat neutrophils [3]; fMLP/CB (5 μg mL^−1)): potent inhibitory effect; % of inhibition at the highest concentration, NO2^− accumulation, N9 cells (N9 microglial cells; 24 h, highest concentration): 31.2 ± 0.7%
CC(=N)NCc1cccc(CN)c1 [Compound 1400W, N-(3-Aminomethyl) benzylacetamidine, reference compound]							3 ± 0.2	2.2 ± 0.1		
CC(C)=CCC1=C2O[C@H](C(C)(C)O)C[C@@]23C[C@H](CC=C(C)C)C(C)(C)[C@@](C(=O)C(C)C)(C1=O)C3=O [Garsubellin A]									strongly inhibited	
CN1CCN(CCCN2c3ccccc3Sc3ccc(C(F)(F)F)cc32)CC1 [Trifluoperazine, reference compound]										IC50 (rat neutrophils [1]; Neutrophil): 10.6 ± 0.9 µM; IC50 (rat neutrophils [2]; Neutrophil): 13.2 ± 0.7 µM; IC50 (rat neutrophils [3]; Neutrophil, fMLP (0.3 μM)/CB (5 μg mL^−1)): 6.6 ± 0.2 µM; IC50 (rat neutrophils [4]; Neutrophil): 2.7 ± 0.6 µM
CC(C)=CC[C@H]1C[C@]2(CC=C(C)C)C(=O)[C@]3(CC=C(C)C)O[C@@]1(C(=O)C(C)C)[C@@]2(O)C(C)(C)C3=O [garcinielliptin oxide]									strongly inhibited	
Garcinielliptone I [Compound 4]	> 30	> 30	> 30	> 30	−76.3 ± 7.3	17.4 ± 1.5	> 30	7.4 ± 0.2		% of inhibition at the highest concentration, β-Glucuronidase release (rat neutrophils [1]; highest concentration): 15.6 ± 2.7%; % of inhibition at the highest concentration, Lysozyme release (rat neutrophils [2]; highest concentration): −1.6 ± 7.3%; % of inhibition at the highest concentration, superoxide anion, fMLP/CB (rat neutrophils [3]; fMLP (0.3 μM)/CB (5 μg mL^−1), highest concentration): 2.8 ± 5.7%; effect on production of NO induced by LPS/IFN-γ in N9 cells (in words) (N9 microglial cells): potent inhibitory effect
